Patent US10538528B2, “5H-pyrrolo[2,3-D]pyrimidin-6(7H)-one derivative” (Taiho Pharmaceutical Co., Ltd., priority 2016, dated 2020)

Tests used:
[1] = test system: RKO cells (human colon cancer cell lines); assay: Cell growth inhibition study using RKO cells (CellTiter-Glo); format: cell-based; settings: 72 h, 3 days
Experimental: The in vitro cell growth inhibition study using RKO cells (human colon cancer cell lines) was conducted as described below.
RKO cells (ATCC, Cat#: CRL-2577) cultured in a MEM medium (GIBCO, Cat#:10370-088) supplemented with 10% FBS, 1 mM L-glutamine (GIBCO, Cat#:25030), and 1 mM sodium pyruvate (GIBCO, Cat#:11360) were seeded in a 96-well flat bottom microplate (COSTAR, Cat#:3904) at 2×10^3 cells (150 μl) and cultured in an incubator containing 5% CO2 at 37° C. for 1 day. The compound according to the present invention subjected to serial dilution with dimethyl sulfoxide or dimethyl sulfoxide alone was added to a MEM medium containing 10% FBS, 1 mM L-glutamine, and 1 mM sodium pyruvate. The resultant medium containing the compound or dimethyl sulfoxide alone was added to the RKO cells in the culture plate by 50 μl/well at the final concentration of the compound to 10, 3, 1, 0.3, 0.1, 0.03, 0.01, 0.003, and 0 μM, respectively. Another RKO cell culture plate separately prepared was allowed to stand at room temperature for 30 minutes, then 100 μl of the medium was removed, and added 50 μl of CellTiter-Glo® 2.0 Assay (Promega, Cat#:G9242) to each well. After the plates were placed in the dark for 10 minutes, the luminescence level derived from viable cells in each well was measured by the Multimode Plate Reader (PerkinElmer, EnSpire). The cells treated with the compound or dimethyl sulfoxide alone were cultured at 37° C. in an incubator containing 5% CO2 for an additional 3 days. After incubation, the culture plate was placed at room temperature for 30 minutes, and 150 μl of the supernatant was removed from each well to adjust the amount of the remaining cell culture solution to 50 μl each. To 50 μl of the remaining cell culture solution, the equivalent amount of CellTiter-Glo® 2.0 Assay was added. After the cell culture plate was placed in the dark for 10 minutes, the luminescence level derived from viable cells in each well was assayed with the use of the Multimode Plate Reader. The cell growth rate was calculated by the formulae shown below and the concentration at which the cell growth rate became 50%; i.e., the concentration of the compound according to the present invention at which cell growth would be inhibited by 50% was determined (GI50 (nM)). Cell growth rate (%)=(T−C0)/(C−C0)×100, provided that T is equal to or greater than C0(T≥C0) Cell growth rate (%)=(T−C0)/C0×100, provided that T is less than C0(T<C0) C0: Luminescence level in each well when the compound is added (count per second) C: Luminescence level in each well when dimethyl sulfoxide is added alone (count per second) T: Luminescence level in each well when the test compound is added (count per second)
As control compounds, conventional Comparative Example A (WO 2010/056563 (Example 31)) and Comparative Example B having inhibitory activity against Akt were used.
The GI50 levels of representative compounds according to the present invention and reference compounds in RKO cells were evaluated, and the results are shown in Table 5.

human Akt1 = human Akt1 (Homo sapiens (Human), UniProt P31749); assay: Inhibitory effects on Akt1 kinase activity (TR-FRET, biotinylated Crosstide); format: biochemical; settings: Akt1, ATP 150 μM, pre-incubation 120 minutes at 25° C.; read-out: AKT inhibitory activity IC50
human Akt1, sequence (P31749 whole entry): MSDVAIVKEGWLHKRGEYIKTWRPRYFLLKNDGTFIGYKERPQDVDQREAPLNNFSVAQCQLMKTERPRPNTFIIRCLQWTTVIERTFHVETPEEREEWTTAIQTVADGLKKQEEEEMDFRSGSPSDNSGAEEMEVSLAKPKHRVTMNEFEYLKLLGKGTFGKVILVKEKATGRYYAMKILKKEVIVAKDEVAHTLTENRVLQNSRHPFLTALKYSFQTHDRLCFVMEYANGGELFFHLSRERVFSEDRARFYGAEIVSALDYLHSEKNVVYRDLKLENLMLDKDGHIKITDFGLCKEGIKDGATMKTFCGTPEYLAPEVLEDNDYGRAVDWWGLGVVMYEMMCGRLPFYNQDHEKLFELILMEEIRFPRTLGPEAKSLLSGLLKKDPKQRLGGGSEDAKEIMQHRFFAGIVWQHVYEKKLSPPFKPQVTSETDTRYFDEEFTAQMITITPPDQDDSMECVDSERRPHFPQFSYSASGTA
Experimental: Akt1 was prepared and assays of inhibitory activity of the compound according to the present invention against Akt1 kinase activity in vitro were conducted according to the method described in Biochem. J., vol. 385, pp. 399-408, 2005 and Cancer Res., vol. 68, pp. 2366-2374, 2008. In the preparation of Akt1 protein, human Akt1 tagged with the middle T antigen was expressed in an insect cell Sf9, Akt1 was prepared through affinity purification and activation by PDK1, and the resultant was stored at −80° C. until the inhibition assays of the compounds. In the inhibition assay of the compounds, Akt1 and the compound according to the present invention were subjected to pre-incubation at 25° C. for 120 minutes in a reaction buffer (15 mM Tris-HCl, pH 7.5, 0.01% Tween-20, 2 mM DTT). Subsequently, biotinylated Crosstide (biotin-[…], Millipore), MgCl2, and ATP were added as substrates at the final concentration of 500 nM, 10 mM, and 150 μM, respectively, and the reaction was allowed to proceed at 25° C. for 60 minutes. EDTA was added to the final concentration of 40 mM to terminate the reaction, a detection liquid containing the Eu-anti-phospho-Crosstide antibody (PerkinElmer) and SureLight APC-SA (PerkinElmer) at the final concentration of 0.5 nM and 62.5 nM, respectively was added, and the reaction was allowed to proceed at room temperature for 2 hours. In the end, the fluorescence levels irradiated with an excitation light of 337 nm were assayed at two different wavelength levels (i.e., 620 nm and 665 nm) using PI-HERAstar FS (BMG LABTECH) or PHERAstar (BMG LABTECH). The level of the phosphorylation reaction was determined on the basis of the ratio of fluorescence levels at two wavelength levels, and the concentration of the compound at which phosphorylation could be inhibited by 50% was defined as the IC50 level (nM) and shown in Table 2.
As reference compounds, conventional Comparative Example A (WO 2010/056563 (Example 31)) and Comparative Example B having inhibitory activity against Akt were used.

S6K1 = S6K1 (Homo sapiens (Human), UniProt P23443); assay: Inhibitory effects on S6K1 kinase activity (QSS Assist FP assay kit); format: biochemical; settings: S6K1, ATP 25 μM; read-out: S6K inhibitory activity IC50
S6K1, sequence (P23443 whole entry): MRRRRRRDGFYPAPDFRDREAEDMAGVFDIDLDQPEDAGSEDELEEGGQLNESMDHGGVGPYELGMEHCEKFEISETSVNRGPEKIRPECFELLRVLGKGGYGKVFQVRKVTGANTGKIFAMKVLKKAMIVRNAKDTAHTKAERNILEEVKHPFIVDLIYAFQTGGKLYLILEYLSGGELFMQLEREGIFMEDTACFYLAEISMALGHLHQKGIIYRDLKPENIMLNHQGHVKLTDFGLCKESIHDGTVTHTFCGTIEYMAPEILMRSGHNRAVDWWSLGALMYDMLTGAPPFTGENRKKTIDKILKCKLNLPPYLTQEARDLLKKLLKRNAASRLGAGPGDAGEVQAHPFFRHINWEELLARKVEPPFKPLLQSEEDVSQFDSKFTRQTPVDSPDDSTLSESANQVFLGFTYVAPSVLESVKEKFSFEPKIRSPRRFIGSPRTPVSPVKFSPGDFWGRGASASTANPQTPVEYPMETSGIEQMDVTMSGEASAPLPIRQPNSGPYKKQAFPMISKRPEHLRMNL
Experimental: Inhibitory activity of the compound according to the present invention on S6K1 kinase activity in vitro was assayed using the QSS Assist™ FP assay kit (Carna Biosciences, Inc.).
In the inhibition assay for inhibitory activity of the compound, the test compound was diluted by serial dilution with dimethyl sulfoxide (DMSO). Subsequently, an S6K protein, a substrate peptide (final concentration: 100 nM), magnesium chloride (final concentration: 5 mM), ATP (final concentration: 25 μM), and the solution of the test compound in DMSO (final DMSO concentration: 5%) were added to the kinase reaction buffer (20 mM HEPES (pH 7.4), 2 mM dithiothreitol, 0.01% Tween-20), and the mixture was incubated at 25° C. for 30 minutes to perform the kinase reaction. The IMAP Progressive Binding Reagent diluted to 400-fold with the IMAP Progressive Binding Buffer A (Molecular Devices, LLC) was added thereto to terminate the kinase reaction. The reaction product was allowed to stand at room temperature in the dark for 120 minutes and assayed with the use of PHERAstar (BMG LABTECH; excitation wavelength: 485 nm; detection wavelength: 520 nm). The level of phosphorylation reaction was determined based on the degree of fluorescence polarization, and the concentration of the compound at which phosphorylation could be inhibited by 50% was defined as the IC50 level (nM) and shown in Table 4.

Rsk1 = Rsk1 (Homo sapiens (Human), UniProt Q15418); assay: Inhibitory effects on Rsk1 kinase activity (QSS Assist FP assay kit); format: biochemical; settings: Rsk1, ATP 30 μM; read-out: Rsk inhibitory activity IC50
Rsk1, sequence (Q15418 whole entry): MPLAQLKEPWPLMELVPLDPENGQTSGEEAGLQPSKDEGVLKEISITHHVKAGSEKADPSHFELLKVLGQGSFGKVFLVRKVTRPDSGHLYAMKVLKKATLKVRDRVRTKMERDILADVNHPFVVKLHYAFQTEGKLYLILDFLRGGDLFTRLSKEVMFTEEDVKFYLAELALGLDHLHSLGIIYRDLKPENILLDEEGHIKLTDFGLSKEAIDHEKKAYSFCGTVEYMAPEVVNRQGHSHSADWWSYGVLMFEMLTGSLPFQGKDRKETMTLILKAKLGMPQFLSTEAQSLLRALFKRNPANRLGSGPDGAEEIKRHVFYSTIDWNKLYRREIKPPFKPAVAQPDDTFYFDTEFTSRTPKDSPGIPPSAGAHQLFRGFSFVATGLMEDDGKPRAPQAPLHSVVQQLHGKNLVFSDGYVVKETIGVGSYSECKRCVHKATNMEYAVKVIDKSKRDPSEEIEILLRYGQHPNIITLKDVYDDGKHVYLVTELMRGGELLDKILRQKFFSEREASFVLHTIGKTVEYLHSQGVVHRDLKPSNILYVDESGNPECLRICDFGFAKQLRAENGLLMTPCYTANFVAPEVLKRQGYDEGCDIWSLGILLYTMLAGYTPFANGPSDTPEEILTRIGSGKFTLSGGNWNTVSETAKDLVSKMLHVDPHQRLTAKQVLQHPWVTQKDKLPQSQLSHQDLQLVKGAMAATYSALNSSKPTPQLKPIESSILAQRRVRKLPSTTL
Experimental: Inhibitory activity of the compound according to the present invention on Rsk1 kinase activity in vitro was assayed using the QSS Assist™ FP assay kit (Carna Biosciences, Inc.).
In the inhibition assay of inhibitory activity of the compound, the test compound was diluted by serial dilution with dimethyl sulfoxide (DMSO). Subsequently, an Rsk1 protein, a substrate peptide (final concentration: 100 nM), magnesium chloride (final concentration: 10 mM), ATP (final concentration: 30 μM), and the solution of the test compound in DMSO (DMSO final concentration: 5%) were added to the kinase reaction buffer (20 mM HEPES (pH 7.4), 2 mM dithiothreitol, 0.01% Tween-20), and the mixture was incubated at 25° C. for 40 minutes to perform the kinase reaction. The IMAP Progressive Binding Reagent diluted to 400-fold with the IMAP Progressive Binding Buffer A (Molecular Devices, LLC) was added to terminate the kinase reaction.

SMILES	GI50 [1] [nM]	IC50 (human Akt1) [nM]	IC50 (S6K1) [nM]	IC50 (Rsk1) [nM]
CC(C)(C)NCCNc1ccc(-c2cncc(F)c2)nc1C1CCN(c2ncnc3c2C(C)(C)C(=O)N3)CC1 [Compound 1, 4-(4-(5-((2-(Tert-butylamino)ethyl)amino)-5′-fluoro-[2,3′-bipyridin]-6-yl)piperidin-1-yl)-5,5-dimethyl-5H-pyrrolo[2,3-d]pyrimidin-6(7H)-one]	136	6.8	0.4	1.5
CC1C(=O)Nc2ncnc(N3CCC(c4nc(-c5ccnc(F)c5)ccc4NCCN4CCCC4)CC3)c21 (stereo not shown) [Compound 13, 4-(4-(2′-Fluoro-5-((2-(pyrrolidin-1-yl)ethyl)amino)-[2,4′-bipyridin]-6-yl)piperidin-1-yl)-5-methyl-5H-pyrrolo[2,3-d]pyrimidin-6(7H)-one]	111	1.4	0.4	1.4
CC1C(=O)Nc2ncnc(N3CCC(c4nc(-c5ccoc5)ccc4NCCN4CCCC4)CC3)c21 (stereo not shown) [Compound 14, 4-(4-(6-(Furan-3-yl)-3-((2-(pyrrolidin-1-yl)ethyl)amino)pyridin-2-yl)piperidin-1-yl)-5-methyl-5H-pyrrolo[2,3-d]pyrimidin-6(7H)-one]	118	0.5	0.9	1.7
COc1cncc(-c2ccc(NCCNC(C)C)c(C3CCN(c4ncnc5c4C(C)C(=O)N5)CC3)n2)c1 (stereo not shown) [Compound 15, 4-(4-(5-((2-(Isopropylamino)ethyl)amino)-5′-methoxy-[2,3′-bipyridin]-6-yl)piperidin-1-yl)-5-methyl-5H-pyrrolo[2,3-d]pyrimidin-6(7H)-one]	122	2.1	0.7	1.1
CC1C(=O)Nc2ncnc(N3CCC(c4nc(-c5nccs5)ccc4NCCN4CCCC4)CC3)c21 (stereo not shown) [Compound 24, 5-Methyl-4-(4-(3-((2-(pyrrolidin-1-yl)ethyl)amino)-6-(thiazol-2-yl)pyridin-2-yl)piperidin-1-yl)-5H-pyrrolo[2,3-d]pyrimidin-6(7H)-one]	130	1.9	0.6	
CC1C(=O)Nc2ncnc(N3CC=C(c4nc(-c5cncc(F)c5)ccc4NCCN4CCCC4)CC3)c21 (stereo not shown) [Compound 26, 4-(5-Fluoro-5′-((2-(pyrrolidin-1-yl)ethyl)amino)-5″,6″-dihydro-[3,2′:6′,4″-terpyridine-]-1″(2″H)-yl)-5-methyl-5H-pyrrolo[2,3-d]pyrimidin-6(7H)-one]	124		0.6	
CC1C(=O)Nc2ncnc(N3CCC(c4cc(-c5cc(C(F)(F)F)nn5C)cnc4NCCN4CCCC4)CC3)c21 (stereo not shown) [Compound 27, 5-Methyl-4-(4-(5-(1-methyl-3-(trifluoromethyl)-1H-pyrazol-5-yl)-2-((2-(pyrrolidin-1-yl)ethyl)amino)pyridin-3-yl)piperidin-1-yl)-5H-pyrrolo[2,3-d]pyrimidin-6(7H)-one]	48	1.6		1.8
CC1(C)C(=O)Nc2ncnc(N3CCC(c4nc(-c5nnc(C(F)F)o5)ccc4NCCN4CCCC4)CC3)c21 [Compound 30, 4-(4-(6-(5-(Difluoromethyl)-1,3,4-oxadiazol-2-yl)-3-((2-(pyrrolidin-1-yl)ethyl)amino)pyridin-2-yl)piperidin-1-yl)-5,5-dimethyl-5H-pyrrolo[2,3-d]pyrimidin-6(7H)-one]	82	14.5	0.5	1.7
CC(C)(C)NCCNc1ccc(-c2nnc(C(F)(F)F)o2)nc1C1CCN(c2ncnc3c2C(C)(C)C(=O)N3)CC1 [Compound 32, 4-(4-(3-((2-(Tert-butylamino)ethyl)amino)-6-(5-(trifluoromethyl)-1,3,4-oxadiazol-2-yl)pyridin-2-yl)piperidin-1-yl)-5,5-dimethyl-5H-pyrrolo[2,3-d]pyrimidin-6(7H)-one]	89			
CC(C)(C)NCCNc1ccc(-c2noc(C(F)F)n2)nc1C1CCN(c2ncnc3c2C(C)(C)C(=O)N3)CC1 [Compound 41, 4-(4-(3-((2-(Tert-butylamino)ethyl)amino)-6-(5-(difluoromethyl)-1,2,4-oxadiazol-3-yl)pyridin-2-yl)piperidin-1-yl)-5,5-dimethyl-5H-pyrrolo[2,3-d]pyrimidin-6(7H)-one]	86	7.2	0.3	1.6
CC1(C)C(=O)Nc2ncnc(N3CCC(c4nc(-c5nc(C(F)(F)F)no5)ccc4NCCN4CCCC4)CC3)c21 [Compound 44, 5,5-Dimethyl-4-(4-(3-((2-(pyrrolidin-1-yl)ethyl)amino)-6-(3-(trifluoromethyl)-1,2,4-oxadiazol-5-yl)pyridin-2-yl)piperidin-1-yl)-5H-pyrrolo[2,3-d]pyrimidin-6(7H)-one]	102	2.6	0.4	0.5
